Data published in patent US20110165173A1, “THERAPEUTIC AGENT AND DETECTION REAGENT FOR ARTERIOSCLEROTIC DISEASE WHICH TARGETS FOR SALUSIN” (PROTEINEXPRESS CO., LTD., priority 2007, published 2011).

Legend:
[1] = system: human monocyte-derived macrophages; assay: Cholesterol esterification assay: foaming of human monocyte-derived macrophages caused by AcLDL; assay type: cell-based; conditions: 0.6 nM; 5 μg/mL AcLDL added on Day 7
Protocol: Cholesterol esterification assay was employed as a method for assaying foaming of macrophages [Goldstein J L et al., Methods Enzymol. 1983; 98: 241-260]. Macrophages cause acetylated LDL (AcLDL) to be incorporated into cells via scavenger receptors so as to result in lysosome degradation. Free cholesterol produced in a lysosome is transferred to ACAT and converted into cholesterol ester as a result of ACAT reaction. If [^3H]oleate is added to a medium, [^3H]oleate is incorporated into cells and converted into [^3H]oleoyl-CoA by acyl CoA synthase. ACAT produces cholesterol [^3H]oleate with the use of as substrates, AcLDL-derived free cholesterol and [^3H]oleoyl-CoA obtained as above. The radioactivity of cholesterol [^3H]oleate accumulated in cells can serve as a sensitive indicator for cholesterol ester accumulation (FIG. 7).
LDL (d=1.019-1.063) was purified from human blood plasma by sequential flotation ultracentrifugation [Schumaker VN et al., Methds Enzymol. 1986; 128: 155-170]. […] The volume of the obtained blood plasma fraction from which chylomicron and VLDL had been removed was measured with a volumetric flask. […]
Equivalent volumes of LDL (protein: 30 mg) (15 mL if 2.0 mg protein/mL) and saturated sodium acetate were mixed together. […] At this time, pH was monitored with a pH meter with the dropwise addition of 5 N NaOH thereto such that the pH could be maintained at more than 6.5. […]

[2] = system: macrophages of apoE-deficient mice; assay: Foaming (oxidized LDL-induced cholesterol ester accumulation) of macrophages collected from treated apoE-deficient mice; assay type: in vivo; conditions: 0.6 nmol/kg/h, four weeks
Protocol: (§1) 13-week-old male apoE-deficient mice (72 mice) were divided into the following 6 groups: (i) physiological salt saline (control); (ii) salusin-α (0.6 nmol/kg/h); (iii) salusin-β (0.6 nmol/kg/h); (iv) salusin-α (0.6 nmol/kg/h)+anti-salusin-α serum (1.4 μg/kg/h); (v) salusin-β (0.6 nmol/kg/h)+anti-salusin-β serum (1.4 μg/kg/h); and (vi) anti-salusin-β serum (1.4 μg/kg/h). The mice were subjected to continuous subcutaneous administration with the use of an osmotic mini-pump for 4 to 8 weeks. The osmotic mini-pump and the solution contained therein were changed every week.
On Day 4 after intraperitoneal administration of thioglycollate, transudatory macrophages were collected and cultured with an RPMI1640 solution containing 10% bovine fetal serum. Oxidized LDL (10 μg/mL) and [^3H] oleic acid (0.1 mM) were added to the culture solution. After 13 hours, the radioactivity of intracellularly accumulated cholesterol [^3H] oleic acid was assayed for evaluation of foaming of macrophages.

SR-A = SR-A expression by macrophages of treated apoE-deficient mice (Western blotting); assay type: in vivo; conditions: four weeks
Protocol: as §1
Macrophages were collected as in the experiment in (1), and the protein expression of the gene involved in foaming of macrophages (i.e., scavenger receptors CD36 and SR-A capable of recognizing oxidized LDL, intracellular cholesterol esterification enzyme ACAT1, and ABCA1, ABCG1, and SR-BI, which are involved in cholesterol efflux) was analyzed by Western blotting. For the internal standard of the macrophage function, β-actin expression was also examined. For quantification of the band concentration, Analyzer (ATTO Corporation, Tokyo) was used.

Row | Substance | accumulation of cholesterol [3H]oleate caused by AcLDL, percent of loaded control cells [1] [%] | foaming of macrophages due to oxidized LDL (intracellular cholesterol ester accumulation), fraction of control ([2]; P<0.05) | SR-A protein expression (SR-A; salusin-α 0.6 nmol/kg/h) | accumulation of cholesterol [3H]oleate caused by AcLDL relative to control cells [1] [times] | foaming of macrophages due to oxidized LDL relative to control ([2]; P<0.01) | SR-A protein expression relative to control level (SR-A; 0.6 nmol/kg/h, range given jointly for CD36, SR-A, ACAT1, P<0.05) [times]
1 | salusin-α: peptide (SEQ ID NO: 1) comprising 28 amino acid residues, generated by processing from preprosalusin (SGALPPAPAAPRPALRAQRAGPAGPGAK; listed as Homo sapiens) | 50 | approximately ¼ | did not influence | – | – | –
2 | salusin-β: peptide (SEQ ID NO: 3) comprising 20 amino acid residues, generated by processing from preprosalusin (AIFIFIRWLLKLGHHGRAPP; listed as Homo sapiens) [reference compound] | – | – | – | 1.6 | approximately 2 times | 1.5 to 2.8
